Measured values published in patent US20230167073A1 (Teijin Pharma Limited, priority 2020, published 2023).

Each compound was assayed against T1, Human TRPC6 (Homo sapiens, UniProt Q9Y210) (assay: Evaluation of TRPC6 channel inhibitory activity (2), HEK293 cells with stably introduced human TRPC6, OAG stimulation, FLIPR tetra (Compound Nos. 1293 to 1405)). Details: HEK293 cells with stably introduced human TRPC6, OAG 50 μM/0.5% DMSO, read-out: Inhibitory activity (pIC50 class) (converted).
T1 construct: expressed in transfected cells
T1 sequence (Q9Y210 1-931): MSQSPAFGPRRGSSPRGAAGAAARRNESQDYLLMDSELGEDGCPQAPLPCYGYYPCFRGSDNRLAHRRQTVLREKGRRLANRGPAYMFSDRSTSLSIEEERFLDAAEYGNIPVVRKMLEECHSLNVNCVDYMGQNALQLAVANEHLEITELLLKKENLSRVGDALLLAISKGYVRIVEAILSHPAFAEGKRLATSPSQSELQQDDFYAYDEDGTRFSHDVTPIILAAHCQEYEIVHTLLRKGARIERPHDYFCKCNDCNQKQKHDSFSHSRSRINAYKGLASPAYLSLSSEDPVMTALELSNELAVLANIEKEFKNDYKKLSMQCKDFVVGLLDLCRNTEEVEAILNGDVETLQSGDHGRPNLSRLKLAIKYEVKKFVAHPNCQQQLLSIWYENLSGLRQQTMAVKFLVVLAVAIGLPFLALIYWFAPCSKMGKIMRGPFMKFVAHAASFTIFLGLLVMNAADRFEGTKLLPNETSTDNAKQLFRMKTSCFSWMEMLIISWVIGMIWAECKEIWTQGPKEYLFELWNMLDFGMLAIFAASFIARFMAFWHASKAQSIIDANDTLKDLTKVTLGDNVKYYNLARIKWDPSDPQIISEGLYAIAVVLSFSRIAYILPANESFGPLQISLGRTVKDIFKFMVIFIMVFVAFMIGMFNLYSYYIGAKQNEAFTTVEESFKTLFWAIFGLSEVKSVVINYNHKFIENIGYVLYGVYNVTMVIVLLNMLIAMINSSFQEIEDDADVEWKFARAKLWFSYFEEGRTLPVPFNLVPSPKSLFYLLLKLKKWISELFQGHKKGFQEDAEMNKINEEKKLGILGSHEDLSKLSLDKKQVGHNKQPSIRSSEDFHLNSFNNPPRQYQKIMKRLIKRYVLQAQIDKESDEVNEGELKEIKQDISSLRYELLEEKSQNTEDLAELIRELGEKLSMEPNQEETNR
Type: cell-based
Description: Evaluation of TRPC6 Channel Inhibitory Activity (2) (Compound Nos. 1293 to 1405)
The activity of the TRPC6 inhibitor was measured by stimulating HEK293 cells, in which human TRPC6 was stably introduced, with OAG (1-Oleoyl-2-acetyl-sn-glycerol, Miliipore Sigma, 06754), using the FLIPR tetra system. The cells were proliferated in a humid environment at 37° C. 5% CO2 using a growth medium (DMEM (Dulbecco's Modified Eagle's Medium) high glucose containing 10% fetal bovine serum, 1×PSGlu (penicillin-streptomycin glutamine), 1×NEAA (Non-essential amino acid), sodium pyruvate and 200 μg/mL hyglomycin. For cell subculture, the cells were proliferated to 70-90% confluence, and gently washed twice with PBS (phosphate-buffered saline) free of calcium and magnesium after removing the medium. Then, the cells were incubated at 37° C. for 5 minutes after adding trypsin (3 mL), peeled off by tapping the flask at the base of the hand, 7 mL of growth medium was added to inactivate trypsin, and then the cells were resuspended. Usually, the cells were separated every 2-3 days to become a cell density of ⅕. The day before evaluation, the cells were seeded in a poly-D-lysine (PDL) coated 384-well plate using a multi-channel pipette or multidrop at a cell density of 1.0-1.5×10^4 cells/25 μL/well. After culturing overnight in a PDL-coated 384 Blackwell plate, a fluorescent dye buffer was added first to the cells and the cells were cultured at room temperature for 90-120 minutes. For preparing 10 mL of fluorescent dye buffer, 9 mL of assay buffer, 1 mL of 10×PBX signal enhancer, and 10 μL of calcium indicator were mixed. Cells treated with the compounds of each level 25 minutes before the stimulation with OAG of TRPC6 agonist were incubated. OAG solution was prepared by adding OAG to assay buffer (Ca ringer solution base: 10 mM HEPES (4-(2-hydroxyethyl)-1-piperazine-ethanesulfonic acid), 4 mM MgCl2, 120 mM NaCl, 5 mM KCl, pH=7.2 (25° C.)+0.1% BSA+2 mM CaCl2)) to give an OAG concentration of 0.2 mM/2% DMSO. The final concentration of OAG added to the cells is 50 μM/0.5% DMSO. A volume of 12.5 μL of OAG solution was added, and activation of TRPC6 channel was measured using the FLIPR tetra system assaying the change in intracellular calcium level as an index. The 180 seconds imaging frame was defined as the background signal, and the subtraction of the background signal from the raw data was used as the fluorescence peak signal. Each fluorescence peak signal is standardized using an OAG-induced signal and buffer-induced signal as 100% and 0%, respectively. The inhibition rate obtained by plotting the peak signal after the addition of the compounds of each level was analyzed by a four-parameter logistic regression to quantify the inhibition rate in the logarithm of the inverse of the effective concentration which gives a 50% inhibition rate (pIC50). The intensity was expressed by the above-mentioned symbols (+, ++, +++).

IC50 | SMILES
10 to 1000 nM | Cn1nc(-c2ccccn2)cc1Oc1cc(C#N)ccc1-c1ncc(C(F)(F)CN)cn1 [compound 1318, 4-[5-(2-amino-1,1-difluoroethyl)pyrimidin-2-yl]-3-(2-methyl-5-pyridin-2-ylpyrazol-3-yl)oxybenzonitrile]
10 to 1000 nM | Cc1cc(Oc2cc(C#N)ccc2-c2ncc(C(F)(F)CN)cn2)cc(N2CCOCC2)n1 [compound 1319, 4-[5-(2-amino-1,1-difluoroethyl)pyrimidin-2-yl]-3-(2-methyl-6-morpholin-4-ylpyridin-4-yl)oxybenzonitrile]
10 to 1000 nM | Cc1cc(Oc2cc(Cl)ccc2-c2ccc(CN)cn2)cc(N2CCOCC2)n1 [compound 1321, [6-[4-chloro-2-(2-methyl-6-morpholin-4-ylpyridin-4-yl)oxyphenyl]pyridin-3-yl]methanamine]
< 10 nM | Cn1nc(-c2ccccn2)cc1Oc1cc(Cl)ccc1-c1ncc(CCN)cn1 [compound 1322, 2-[2-[4-chloro-2-(2-methyl-5-pyridin-2-ylpyrazol-3-yl)oxyphenyl]pyrimidin-5-yl]ethanamine]
< 10 nM | Cn1nc(-c2ccccn2)cc1Oc1cc(Cl)ccc1-c1ncc(CN)cn1 [compound 1323, [2-[4-chloro-2-(2-methyl-5-pyridin-2-ylpyrazol-3-yl)oxyphenyl]pyrimidin-5-yl]methanamine]
< 10 nM | Cn1nc(-c2ccccn2)cc1Oc1cc(Cl)ccc1-c1ncc([C@H](F)CN)cn1 [compound 1324, (2S)-2-[2-[4-chloro-2-(2-methyl-5-pyridin-2-ylpyrazol-3 yl)oxyphenyl]pyrimidin-5-yl]-2-fluoroethanamine]
< 10 nM | Cn1nc(-c2ccccn2)cc1Oc1cc(Cl)ccc1-c1ncc([C@@H](F)CN)cn1 [compound 1325, (2R)-2-[2-[4-chloro-2-(2-methyl-5-pyridin-2-ylpyrazol-3-yl)oxyphenyl]pyrimidin-5-yl]-2-fluoroethanamine]
10 to 1000 nM | Cn1nc(-c2ccccn2)cc1Oc1cc(C#N)ccc1-c1ccc(CN)nn1 [compound 1326, 4-[6-(aminomethyl)pyridazin-3-yl]-3-(2-methyl-5-pyridin-2-ylpyrazol-3-yl)oxybenzonitrile]
10 to 1000 nM | COc1nc(-c2ccc(C#N)cc2Oc2cc(-c3ccccn3)nn2C)ncc1[C@@H](O)CN [compound 1327, 4-[5-[(1R)-2-amino-1-hydroxyethyl]-4-methoxypyrimidin-2-yl]-3-(2-methyl-5-pyridin-2-ylpyrazol-3-yl)oxybenzonitrile]
10 to 1000 nM | COc1nc(-c2ccc(C#N)cc2Oc2cc(-c3ccccn3)nn2C)ncc1[C@H](O)CN [compound 1328, 4-[5-[(1S)-2-amino-1-hydroxyethyl]-4-methoxypyrimidin-2-yl]-3-(2-methyl-5-pyridin-2-ylpyrazol-3-yl)oxybenzonitrile]
> 1000 nM | Cc1cc(Oc2nc(Cl)ccc2-c2ccc(CCN)cc2)cc(N2CCOCC2)n1 [compound 1329, 2-[4-[6-chloro-2-(2-methyl-6-morpholin-4-ylpyridin-4-yl)oxypyridin-3-yl]phenyl]ethanamine]
< 10 nM | Cn1nc([C@H]2CCCOC2)cc1Oc1cc(C#N)ccc1-c1ccc(CN)cn1 [compound 1330, 4-[5-(aminomethyl)pyridin-2-yl]-3-[2-methyl-5-[(3R)-oxan-3-yl]pyrazol-3-yl]oxybenzonitrile]
> 1000 nM | Cn1nc(-c2ccccn2)cc1Oc1cc(C#N)cnc1-c1ccc(CCN)cc1 [compound 1331, 6-[4-(2-aminoethyl)phenyl]-5-(2-methyl-5-pyridin-2-ylpyrazol-3-yl)oxypyridine-3-carbonitrile]
> 1000 nM | Cn1nc(-c2ccccn2)cc1Oc1cc(Cl)ncc1-c1ccc(CCN)cc1 [compound 1332, 2-[4-[6-chloro-4-(2-methyl-5-pyridin-2-ylpyrazol-3-yl)oxypyridin-3-yl]phenyl]ethanamine]
10 to 1000 nM | Cn1nc(-c2ccccn2)cc1Oc1cc(C#N)ccc1-c1nc(Cl)ccc1CN [compound 1333, 4-[3-(aminomethyl)-6-chloropyridin-2-yl]-3-(2-methyl-5-pyridin-2-ylpyrazol-3-yl)oxybenzonitrile]
< 10 nM | Cn1nc(-c2ccccn2)cc1Oc1cc(C#N)ccc1-c1ccc(CN)c(Cl)n1 [compound 1334, 4-[5-(aminomethyl)-6-chloropyridin-2-yl]-3-(2-methyl-5-pyridin-2-ylpyrazol-3-yl)oxybenzonitrile]
< 10 nM | Cn1nc(-c2ccccn2)cc1Oc1cc(F)ccc1-c1ncc([C@H](F)CN)cn1 [compound 1335, (2S)-2-fluoro-2-[2-[4-fluoro-2-(2-methyl-5-pyridin-2-ylpyrazol-3-yl)oxyphenyl]pyrimidin-5-yl]ethanamine]
10 to 1000 nM | Cc1cc(Oc2cc(Cl)ccc2-c2ncc([C@@H](F)CN)cn2)cc(N2CCOCC2)n1 [compound 1336, (2R)-2-[2-[4-chloro-2-(2-methyl-6-morpholin-4-ylpyridin-4-yl)oxyphenyl]pyrimidin-5-yl]-2-fluoroethanamine]
< 10 nM | Cc1cc(Oc2cc(Cl)ccc2-c2ncc([C@H](F)CN)cn2)cc(N2CCOCC2)n1 [compound 1337, (2S)-2-[2-[4-chloro-2-(2-methyl-6-morpholin-4-ylpyridin-4-yl)oxyphenyl]pyrimidin-5-yl]-2-fluoroethanamine]
< 10 nM | Cn1nc(-c2ccccn2)cc1Oc1cc(Cl)ccc1-c1ccc([C@H](F)CN)cn1 [compound 1338, (2S)-2-[6-[4-chloro-2-(2-methyl-5-pyridin-2-ylpyrazol-3-yl)oxyphenyl]pyridin-3-yl]-2-fluoroethanamine]
< 10 nM | Cn1nc(-c2ccccn2)cc1Oc1cc(Cl)ccc1-c1ccc([C@@H](F)CN)cn1 [compound 1339, (2R)-2-[6-[4-chloro-2-(2-methyl-5-pyridin-2-ylpyrazol-3-yl)oxyphenyl]pyridin-3-yl]-2-fluoroethanamine]
< 10 nM | Cn1nc(-c2ccccn2)cc1Oc1cc(Cl)ccc1-c1ccc(CN)cn1 [compound 1340, [6-[4-chloro-2-(2-methyl-5-pyridin-2-ylpyrazol-3-yl)oxyphenyl]pyridin-3-yl]methanamine]
10 to 1000 nM | Cn1nc(-c2ccccn2)cc1Oc1cc(F)ccc1-c1ncc(CN)cn1 [compound 1341, [2-[4-fluoro-2-(2-methyl-5-pyridin-2-ylpyrazol-3-yl)oxyphenyl]pyrimidin-5-yl]methanamine]
10 to 1000 nM | Cn1nc(-c2ccccn2)cc1Oc1cc(F)ccc1-c1ncc([C@@H](F)CN)cn1 [compound 1342, (2R)-2-fluoro-2-[2-[4-fluoro-2-(2-methyl-5-pyridin-2-ylpyrazol-3-yl)oxyphenyl]pyrimidin-5-yl]ethanamine]
